# Test results taken from patent publication US9289445B2, “Compositions and methods for treating or preventing a retrovirus infection” (University of Rochester, priority 2011, dated 2016).
# How the values were obtained:
# HIV-1 RT [1] = molecular target: T1, HIV-1 RT (Human immunodeficiency virus type 1 group M subtype B, UniProt P04585); test: Steady state kinetics of reverse transcriptase for dTTP/dUTP; assay type: biochemical
# T1 construct: Pre-Steady State Kinetic Parameters of HIV-1 RT for dTTP/dUTP
# Procedure: (§1) Retrovirus RT was assessed for its ability to incorporated dTTP and dUTP at physiologically relevant concentrations. First, Km of HIV-1 RT, SIV RT, MuLV RT, and FIV RT for both dTTP and dUTP was measured.
# The single nucleotide incorporation reactions were conducted using 20 nM template/primers (40mer RNA template annealed to Primer A, Ext-T primer, Ext-G primer, or Ext-C primer) and 20 nM RT in 1× reaction buffer for 5 minutes at varying concentrations of NTP. Reactions were performed in triplicate.
# (§2) All primer extension reactions were analyzed with urea denaturing 10-16% PAGE gels and scanned with a phosphoimager (Biorad, Hercules, Calif.) and quantified with the Biorad Quantity One software. Nonlinear regression analysis was done with Kaleida Graph (Synergy Software, Reading, Pa.). Rates were determined with a single exponential, and Michaelis Menten fits were completed as previously described in Kennedy et al. Biochemistry 48:11161-11168 (2009).
# SIVagm Sab1 RT = test: as above; assay type: biochemical, simian immunodeficiency virus (SIVagm Sab); settings: SIV RT
# Procedure: as §1, §2
# FIV RT = FIV RT (Feline immunodeficiency virus, UniProt P16088); test: as above; assay type: biochemical
# Procedure: as §1, §2
# MuLV RT = MuLV RT (Moloney murine leukemia virus, UniProt P03355); test: as above; assay type: biochemical
# Procedure: as §1, §2
# HIV-1 RT [2] = molecular target: T1, HIV-1 RT; test: Pre-steady state quench flow titrations for dTTP and dUTP; assay type: biochemical
# Procedure: To confirm that selectivity is not pronounced during the binding or isomerization steps of polymerization, pre-steady state quench flow titrations for dTTP and dUTP were performed with HIV-1 RT.
# HIV-1 RT [3] = molecular target: T1, HIV-1 RT; test: Single nucleotide extension at macrophage nucleotide concentrations; assay type: biochemical; settings: rNTP alone at macrophage concentration
# Text: FIGS. 4A-4E compare the dNTP and rNTP incorporation rates of HIV-1 RT at nucleotide concentrations found in human macrophages. Incorporation kinetics of HIV-1 RT (green circle) for individual dNTPs and rNTPs at their concentrations found in macrophages (see Table 1) were compared by single nucleotide extension reactions. FIG. 4A is a gel showing a representative time-course reaction set for dATP alone, ATP alone, or both dATP and ATP at their macrophage concentrations. P: unextended 17-mer primer, E: extended 18-mer product. and C: no RT control. FIG. 4B includes graphs. The percentages of the primer extension at early time points were plotted to compare the incorporation rate for each dNTP or rNTP alone as well as for dNTPs and rNTPs at their macrophage concentrations. FIG. 4C is a gel showing a time-course reaction. Identical reactions were conducted with SIVagm Sab-1 RT. FIG. 4D is a table showing the steady state Km values of HIV-1 RT to rNTPs determined by single nucleotide incorporation assays. FIG. 4E is a graph comparing rNTP concentrations (black bars) of macrophages and PBMCs and the Km values (red zone) of HIV-1 RT to rNTPs. Grey bars: average concentrations of dNTPs of the two target cell types obtained from Table 1.
# The incorporation kinetics for individual dNTPs and rNTPs by retrovirus RT at the concentrations found in non-dividing cells were assessed. For this, a primer extension reaction similar to that used in FIG. 3C was employed, except nucleotide specific primers and a single dNTP, rNTP, or both were used to estimate individual nucleotide incorporation rates. […] Upon combining dNTPs and rNTPs in a reaction (FIGS. 4A and B, purple dotted lines), the total single nucleotide extension rate appeared to be elevated as compared to the rates of either dNTP (red line) or rNTP alone. When primer extension products were plotted by time, primer extension was accelerated in the presence of both dNTPs and rNTPs at their macrophage concentrations as compared to the reactions containing either dNTPs or rNTPs alone. The results of this single nucleotide assay are consistent with the data from the multiple nucleotide incorporation assay (FIG. 3C).
# HIV-1 RT [4] = molecular target: T1, HIV-1 RT; test: Primer extension followed by E. coli UNG2 digestion (dUTP incorporation); assay type: biochemical
# Procedure: FIG. 8A includes a schematic of a coupled RT extension reaction UNG2 digestion assay and a gel. RT was incubated with i) the dNTP concentrations found in macrophages or PBMCs, and ii) either the dUTP concentration for those cells types or ddH20. These reactions were quenched with EDTA and subjected to E. Coli UNG2 digestion, followed by 95° C. incubation and UREA PAGE gel electrophoresis. The digested bands (*) were quantified and plotted relative to total unextended and extended products. […] FIG. 8C includes a gel showing the results of single nucleotide extension reactions of HIV-1 RT with dTTP and dUTP concentrations found in macrophages. […] The rates of product formation for dTTP (black line), dUTP (blue line), and both dTTP and dUTP (green line) were plotted.
# HIV-1 RT mediated DNA synthesis in nucleotide pools found in dividing and non-dividing cells was further assessed using a primer extension assay followed by E. coli UNG2 digestion to quantify the amount of dUTP incorporated under these condition (FIG. 8). The presence of a […] band at the first dTTP/dUTP incorporation site was used to monitor the fraction of DNAs that contained a dUTP following UNG digestion (see * in FIG. 8). […] The single nucleotide extension assays were performed to compare the rate of incorporation dTTP, dUTP, or both nucleotides at concentrations found in non-dividing cells. […]
# [5] = test system: HIV-1 vector (D3-GFP) in primary human macrophages; test: HIV-GFP vector transduction of primary macrophages (GFP FACS); assay type: cell-based; settings: ddUTP pretreated macrophages, flow cytometry
# Procedure: Human primary macrophages were preincubated with different concentrations of rACT (0, 10, 100 and 100 μM) for 24 hours and then transduced with HIV-GFP vector (equal p24 amounts). The percentages of GFP positive macrophages and PI positive cells in a representative donor, which were determined by FACS at 7 days post transduction, are shown. […] These experiments were performed in triplicate from three different blood donors.
# Primary human macrophages were pretreated with ddUTP and transduced with a single round VSV-G pseudotyped HIV-1 vector (D3HIV). […] FIG. 10B is a graph showing the results from flow cytometry analysis of the transduced cells.
# Next, rACT was evaluated for its ability to inhibit HIV-1 replication in non-dividing cells. The transduction efficiency of an HIV-1 vector in primary human macrophages in the presence and absence of rACT was measured. Human macrophages, which were prepared from multiple donors, were pre-incubated with various concentrations of rACT, and then transduced with an HIV vector (D3-GFP), which expressed all HIV-1 proteins except Env and Nef (replaced with eGFP). Virus infectivity was determined by FACS analysis for GFP expression at 7 days post infection.
# Dideoxy uracil triphosphate (ddUTP) was assessed for its ability to inhibit viral reverse transcription in non-dividing cells. […]
# [6] = test system: HIV-1 2-LTR DNA circles (proviral DNA synthesis) in macrophages; test: Quantitative 2LTR circle PCR in transduced macrophages; assay type: cell-based; settings: ddUTP treated cells
# Procedure: Human macrophages, which were prepared from multiple donors, were pre-incubated with various concentrations of rACT, and then transduced with an HIV vector (D3-GFP), which expressed all HIV-1 proteins except Env and Nef (replaced with eGFP).
# (§3) Dideoxy uracil triphosphate (ddUTP) was assessed for its ability to inhibit viral reverse transcription in non-dividing cells. Primary human macrophages and CD4^+ T-cells were isolated from human buffy coats and pretreated with ddUTP. The treated cells were then transduced with a single round of VSV-G pseudotyped HIV-1 vector D3-HIV in the presence of various concentrations of drug.
# Equal p24 level of the produced vector was used for infecting human macrophages pre-incubated with different concentrations of rACT (RI Chemicals, CA) for 12 hours. For ddUTP, the produced vector was pre-incubated for at least two hours. One half of the harvested cells were used for determining the percentages of the GFP expressing and/or propidium iodide (PI) stained cells by FACS at 7 days post infection. All cells used to asses transduction efficiency were gated or stained with propidium iodide to assure live cells were measured. The remaining cells were used for the extraction of genomic DNA. Quantitative 2LTR circle PCR assay using real-time PCR was normalized by total genomic DNA (Biorad, Hercules, Calif.).
# [7] = test system: HIV-1 vector (DHIV-GFP) in activated CD4+ T cells; test: HIV-GFP vector transduction of activated CD4+ T cells (GFP FACS); assay type: cell-based; settings: ddUTP, CD4+ T cells
# Procedure: Next, rACT was evaluated for its ability to inhibit HIV-1 replication in non-dividing cells. The transduction efficiency of an HIV-1 vector in primary human macrophages in the presence and absence of rACT was measured. Human macrophages, which were prepared from multiple donors, were pre-incubated with various concentrations of rACT, and then transduced with an HIV vector (D3-GFP), which expressed all HIV-1 proteins except Env and Nef (replaced with eGFP). Virus infectivity was determined by FACS analysis for GFP expression at 7 days post infection. […] Finally, the effect of rACT on HIV-1 infection in activated CD4^+ T cells was examined.
# as §3
# rACT was tested in T cells as follows, human primary activated CD4^+ T cells (2.5×10^5) cells isolated from two donors were pre-treated with 0, 0.1, and 1 mM rACT for 4 hours, and then the cells were transduced with DHIV-GFP. The transduced cells were fixed at 48 hours post transduction, and analyzed by FACS for determining the percent of GFP cells. […]
# [8] = test system: primary human macrophages
# Procedure: The treated cells were then transduced with a single round of VSV-G pseudotyped HIV-1 vector D3-HIV in the presence of various concentrations of drug.
# The purified human monocytes from three different donors were differentiated to macrophages as described previously, and D3HIV-GFP vector system expressing GFP, was also prepared as previously described in Jamburuthugoda et al. J. Biol. Chem. 281:13388-13395 (2006); Diamond et al. J. Biol. Chem. 279:51545-51553 (2004); Jamburuthugoda et al. J. Biol. Chem. 283:9206-9216 (2008); and Weiss et al. Biochemistry 43:4490-4500 (2004). […] One half of the harvested cells were used for determining the percentages of the GFP expressing and/or propidium iodide (PI) stained cells by FACS at 7 days post infection. All cells used to asses transduction efficiency were gated or stained with propidium iodide to assure live cells were measured.
compound,measurement,setting,value
Cc1cn([C@H]2C[C@H](O)[C@@H](COP(=O)(O)OP(=O)(O)OP(=O)(O)O)O2)c(=O)[nH]c1=O [dTTP],Km,HIV-1 RT [1],0.0218 ± 0.0028 µM
same,Selectivity (dTTP/dUTP),HIV-1 RT [1],1.298
same,Km,SIVagm Sab1 RT,0.0184 ± 0.0043 µM
same,Selectivity (dTTP/dUTP),SIVagm Sab1 RT,0.839
same,Km,FIV RT,0.0586 ± 0.0066 µM
same,Selectivity (dTTP/dUTP),FIV RT,3.754
same,Km,MuLV RT,0.0504 ± 0.022 µM
same,Selectivity (dTTP/dUTP),MuLV RT,4.969
same,Kd,HIV-1 RT [2],3.4 ± 0.62 µM
same,Kpol,HIV-1 RT [2],85.72 ± 7.3 S^−1
same,Selectivity,HIV-1 RT [2],1.0
same,kpol/kd,HIV-1 RT [2],25 μM^−1 S^−1
Nc1ccn([C@@H]2O[C@H](COP(=O)(O)OP(=O)(O)OP(=O)(O)O)[C@@H](O)[C@H]2O)c(=O)n1 [CTP],rNTP incorporation by HIV-1 RT,HIV-1 RT [3],efficiently
Nc1ncnc2c1ncn2[C@@H]1O[C@H](COP(=O)(O)OP(=O)(O)OP(=O)(O)O)[C@@H](O)[C@H]1O [ATP],rNTP incorporation by HIV-1 RT,HIV-1 RT [3],efficiently
Nc1nc2c(ncn2[C@@H]2O[C@H](COP(=O)(O)OP(=O)(O)OP(=O)(O)O)[C@@H](O)[C@H]2O)c(=O)[nH]1 [GTP],rNTP incorporation by HIV-1 RT,HIV-1 RT [3],less efficiently
O=c1ccn([C@@H]2O[C@H](COP(=O)(O)OP(=O)(O)OP(=O)(O)O)[C@@H](O)[C@H]2O)c(=O)[nH]1 [UTP],rNTP incorporation by HIV-1 RT,HIV-1 RT [3],less efficiently
O=c1ccn([C@H]2C[C@H](O)[C@@H](COP(=O)(O)OP(=O)(O)OP(=O)(O)O)O2)c(=O)[nH]1 [dUTP],Km,HIV-1 RT [1],0.0277 ± 0.007 µM
same,Km,SIVagm Sab1 RT,0.017 ± 0.0035 µM
same,Km,FIV RT,0.18 ± 0.0045 µM
same,Km,MuLV RT,0.253 ± 0.0521 µM
same,Kd,HIV-1 RT [2],5.1 ± 1.93 µM
same,Kpol,HIV-1 RT [2],194.39 ± 30.0 S^−1
same,Selectivity,HIV-1 RT [2],1.52
same,kpol/kd,HIV-1 RT [2],38 μM^−1 S^−1
same,"dUTP incorporation, fraction of all synthesized DNA",HIV-1 RT [4]; dUTP and dNTP levels found in non-dividing cells,⅓
same,"dUTP incorporation, non-dividing versus dividing cell environment",HIV-1 RT [4]; non-dividing compared to dividing cell environment,approximately 5 fold
"O=c1ccn([C@H]2CC[C@@H](COP(=O)(O)OP(=O)(O)OP(=O)(O)O)O2)c(=O)[nH]1 [ddUTP, Dideoxy uracil triphosphate]",inhibition of transduction (eGFP positive live macrophages),[5],dose dependent inhibition of transduction
same,2LTR circles (QT-PCR),[6],2LTR circles accumulated in the cells treated with higher concentrations of drug
same,reduction in transduction efficiency,[7],Little or no reduction in transduction efficiency
same,cell death,[8],little cell death
